Columns and labels:
[1] = refractive index (Na D-line) (dimensionless); conditions: 101.33 kPa, Liquid, Standard Abbe refractometry
[2] = Liquid; for mass density: 101 kPa, Vibrating tube method; for vapor or sublimation pressure: Ebulliometric method (Recirculating still)
[3] = refractive index (Na D-line) (dimensionless); xn = mol fraction of the nth substance listed; conditions: 101 kPa, Liquid, Standard Abbe refractometry
[4] = xn = mol fraction of the nth substance listed; conditions: 101 kPa, Liquid, Vibrating tube method

CCCC(=O)[O-].C[NH2+]CCO [N-methyl-2-hydroxyethylammonium butanoate]
Conditions | mass density, [2] [kg/m3] | refractive index, [1]
288.15 K | 1046 | 1.4579
293.15 K | 1042.6 | –
298.15 K | 1039.2 | –
303.15 K | 1035.9 | 1.4534
308.15 K | 1032.5 | –
313.15 K | – | 1.4504
313.16 K | 1029.1 | –
318.16 K | 1025.7 | –
323.16 K | 1022.3 | –

CCCOC(C)=O [propyl ethanoate]
Conditions | mass density, 298.15 K [kg/m3] | mass density, 308.14 K [kg/m3] | mass density, 313.15 K [kg/m3] | mass density, 318.15 K [kg/m3] | mass density, 323.15 K [kg/m3] | refractive index, 313.15 K | vapor or sublimation pressure, 374 K [kPa]
[1] | – | – | – | – | – | 1.3741 | –
[2] | 882.61 | 871.38 | 865.7 | 860 | 854.26 | – | 101.3

COC(C)=O [methyl ethanoate]
Conditions | mass density, 288.15 K [kg/m3] | mass density, 293.14 K [kg/m3] | mass density, 298.14 K [kg/m3] | mass density, 303.14 K [kg/m3] | mass density, 308.14 K [kg/m3] | mass density, 313.14 K [kg/m3] | mass density, 318.14 K [kg/m3] | mass density, 323.15 K [kg/m3] | refractive index, 288.15 K | vapor or sublimation pressure, 330.1 K [kPa]
[1] | – | – | – | – | – | – | – | – | 1.365 | –
[2] | 939.9 | 933.4 | 926.8 | 920.2 | 913.5 | 906.7 | 899.9 | 893 | – | 101.3

CCOC(C)=O [ethyl acetate]
Conditions | mass density, 298.15 K [kg/m3] | mass density, 303.15 K [kg/m3] | mass density, 308.15 K [kg/m3] | mass density, 313.15 K [kg/m3] | mass density, 318.16 K [kg/m3] | mass density, 323.15 K [kg/m3] | refractive index, 303.15 K | vapor or sublimation pressure, 349.8 K [kPa]
[1] | – | – | – | – | – | – | 1.3672 | –
[2] | 894.9 | 888.76 | 882.58 | 876.34 | 870.06 | 863.73 | – | 101.3

CCCC(=O)[O-].C[NH2+]CCO [N-methyl-2-hydroxyethylammonium butanoate] + CCCOC(C)=O
Conditions | mass density, [4] [kg/m3] | refractive index, [3]
308.15 K, x2 = 0 | 1032.53 | –
308.15 K, x2 = 0.0785 | 1016.82 | –
308.15 K, x2 = 0.4177 | 981.77 | –
308.15 K, x2 = 0.9454 | 884.44 | –
308.16 K, x2 = 0.1247 | 1013.03 | –
308.16 K, x2 = 0.207 | 1003.47 | –
308.16 K, x2 = 0.3035 | 993.9 | –
308.16 K, x2 = 0.5088 | 968.89 | –
308.16 K, x2 = 0.6042 | 952.99 | –
308.16 K, x2 = 0.696 | 936.16 | –
308.16 K, x2 = 0.7939 | 917.53 | –
308.16 K, x2 = 0.8936 | 896.61 | –
313.15 K, x2 = 0 | – | 1.4504
313.15 K, x2 = 0.0785 | 1013.32 | 1.4483
313.15 K, x2 = 0.1247 | – | 1.4457
313.15 K, x2 = 0.207 | – | 1.4417
313.15 K, x2 = 0.3035 | 989.89 | 1.4365
313.15 K, x2 = 0.4177 | 977.59 | 1.4288
313.15 K, x2 = 0.5088 | – | 1.4222
313.15 K, x2 = 0.6042 | – | 1.4146
313.15 K, x2 = 0.696 | 931.3 | 1.4068
313.15 K, x2 = 0.7939 | – | 1.3991
313.15 K, x2 = 0.8936 | – | 1.387
313.15 K, x2 = 0.9454 | – | 1.3809
313.16 K, x2 = 0 | 1029.14 | –
313.16 K, x2 = 0.1247 | 1009.37 | –
313.16 K, x2 = 0.207 | 999.76 | –
313.16 K, x2 = 0.5088 | 964.73 | –
313.16 K, x2 = 0.6042 | 948.38 | –
313.16 K, x2 = 0.7939 | 912.41 | –
313.16 K, x2 = 0.8936 | 891 | –
313.16 K, x2 = 0.9454 | 878.87 | –
318.15 K, x2 = 0.0785 | 1009.82 | –
318.15 K, x2 = 0.207 | 996.08 | –
318.15 K, x2 = 0.4177 | 973.39 | –
318.15 K, x2 = 0.696 | 926.41 | –
318.15 K, x2 = 0.7939 | 907.24 | –
318.16 K, x2 = 0 | 1025.72 | –
318.16 K, x2 = 0.1247 | 1005.67 | –
318.16 K, x2 = 0.3035 | 985.85 | –
318.16 K, x2 = 0.5088 | 960.4 | –
318.16 K, x2 = 0.6042 | 943.75 | –
318.16 K, x2 = 0.8936 | 885.74 | –
318.16 K, x2 = 0.9454 | 873.25 | –
323.15 K, x2 = 0.1247 | 1001.94 | –
323.15 K, x2 = 0.207 | 992.3 | –
323.15 K, x2 = 0.5088 | 956.04 | –
323.15 K, x2 = 0.6042 | 939.06 | –
323.15 K, x2 = 0.696 | 921.47 | –
323.16 K, x2 = 0 | 1022.26 | –
323.16 K, x2 = 0.0785 | 1006.34 | –
323.16 K, x2 = 0.3035 | 981.79 | –
323.16 K, x2 = 0.4177 | 969.14 | –
323.16 K, x2 = 0.7939 | 901.89 | –
323.16 K, x2 = 0.8936 | 880 | –
323.16 K, x2 = 0.9454 | 867.59 | –

CCCOC(C)=O [propyl ethanoate] + CCCC(=O)[O-].C[NH2+]CCO
x1 = 1
Conditions | mass density, 308.14 K [kg/m3] | mass density, 313.15 K [kg/m3] | mass density, 318.15 K [kg/m3] | mass density, 323.15 K [kg/m3] | refractive index, 313.15 K
[3] | – | – | – | – | 1.3741
[4] | 871.38 | 865.7 | 860 | 854.26 | –

COC(C)=O [methyl ethanoate] + CCCC(=O)[O-].C[NH2+]CCO
x1 = 1
Conditions | mass density, 288.15 K [kg/m3] | mass density, 293.14 K [kg/m3] | mass density, 298.14 K [kg/m3] | mass density, 303.14 K [kg/m3] | mass density, 308.14 K [kg/m3] | mass density, 313.14 K [kg/m3] | mass density, 318.14 K [kg/m3] | mass density, 323.15 K [kg/m3] | refractive index, 288.15 K
[3] | – | – | – | – | – | – | – | – | 1.365
[4] | 939.9 | 933.4 | 926.8 | 920.2 | 913.5 | 906.7 | 899.9 | 893 | –

CCOC(C)=O [ethyl acetate] + CCCC(=O)[O-].C[NH2+]CCO
x1 = 1
Conditions | mass density, 303.15 K [kg/m3] | mass density, 308.15 K [kg/m3] | mass density, 313.15 K [kg/m3] | mass density, 318.16 K [kg/m3] | mass density, 323.15 K [kg/m3] | refractive index, 303.15 K
[3] | – | – | – | – | – | 1.3672
[4] | 888.76 | 882.58 | 876.34 | 870.06 | 863.73 | –

— the NIST ThermoML archive (doi:10.1016/j.jct.2013.02.022)
